These results are taken from patent publication US9334280B2, “Synthetic rigidin analogues as anticancer agents, salts, solvates and prodrugs thereof, and method of producing same” (New Mexico Technical Research Foundation, priority 2012, dated 2016).

Experiment [1] has as its system HeLa cervical adenocarcinoma cells. Put plainly: MTT antiproliferative assay, HeLa. It counts as cell-based. The note with it: Homo sapiens, MTT, ± SD. As for the experimental part: (§1) Human T-cell leukemia cell line Jurkat (ATCC TIB-152, E6-1 clone) was cultured in RPMI-1640 (Invitrogen) supplemented with 10% FBS (Invitrogen), 100 mg/L penicillin G, 100 mg/L streptomycin, 1.0 mM sodium pyruvate, 1.5 g/L sodium bicarbonate, and 4.5 g/L glucose (all from Sigma). Human cervical cancer cell line HeLa (ATCC S3) was cultured in DMEM (Invitrogen) supplemented with 10% FBS, 100 mg/L penicillin G, and 100 mg/L streptomycin. MCF-7 (human mammary carcinoma) cells were cultured in DMEM supplemented with 1.0 mM sodium pyruvate, 1% GlutaMax™-1 (Invitrogen), 100 μg/mL penicillin, 100 μg/mL streptomycin, and 10% FBS. Human uterine sarcoma MES-SA and MES-SA/Dx5 cells were cultured in RPMI-1640 medium supplemented with 10% FBS, 100 mg/L penicillin G and 100 mg/L streptomycin. All cells were incubated at 37° C. in a humidified atmosphere with 5% CO2. The other cell lines were maintained in a similar fashion as previously described.
(§2) To evaluate antiproliferative properties of the compounds of Formula I, mitochondrial dehydrogenase activities were measured using the MTT assay. The cell lines were prepared by trypsinizing and seeding […] cells per well into microplates. All compounds were reconstituted in dimethyl sulfoxide (DMSO) at a concentration of either 100 mM or 25 mM prior to treatment. The cells were grown for 24 hrs before treatment at concentrations ranging from 0.004 to 100 microM and incubated for 48 hrs in 200 microL media. 20 microL of MTT reagent in serum free medium (5 mg/mL) was added to each well and incubated further for 2 hrs. Media was removed and the resulting formazan crystals were re-solubilized in 100 microL of DMSO and the optical density (OD) was measured using a Thermomax Molecular Device plate reader at a wavelength of 490 nm. The experiments were performed in quadruplicate and repeated at least twice for each compound per cell line. Cells treated with 0.1% DMSO were used as a negative control, while phenyl arsine oxide (PAO) was used as a positive killing control.
(§3) Human cancer cell lines were obtained from the American Type Culture Collection (ATCC, Manassas, Va., USA), the European Collection of Cell Culture (ECACC, Salisbury, UK) and the Deutsche Sammlung von Mikroorganismen and Zellkulturen (DSMZ, Braunschweig, Germany). Human cervical adenocarcinoma HeLa cells were cultured in DMEM supplemented with 10% fetal bovine serum (FBS). Human mammary carcinoma MCF-7 cells were cultured in RPMI supplemented with 10% FBS. The U87 and U373 cells were cultured in DMEM culture medium (Lonza code 12-136F, Vervier, Belgium), while the SKMEL-28 and A549 cells were cultured in RPMI culture medium (Lonza; code 12-115F) supplemented with 10% heat-inactivated FBS (Lonza, FBS South America code DE14-801F). […] All cell lines were cultured in T25 flasks, maintained and grown at 37° C., 95% humidity, 5% CO2.
(§4) To evaluate antiproliferative properties of the synthesized compounds, the MTT assay was used. The cell lines were assessed by trypsinizing each cell line and seeding 4×10^3 cells per well into 96-well plates. All compounds were dissolved in DMSO at a concentration of either 100 mM or 50 mM prior to cell treatment. The cells were grown for 24 h and then treated with compounds at concentrations ranging from 0.04 to 100 μM and incubated for 48 h in 200 μL media. 20 μL of MTT reagent in serum free medium (5 mg/mL) was added to each well and incubated further for 2 h. Media was removed, and the resulting formazan crystals were re-solubilized in 200 μL of DMSO. A490 was measured using a Thermomax Molecular Device plate reader. The experiments were performed in quadruplicate and repeated at least twice for each compound per cell line. Cells treated with 0.1% DMSO were used as a control, and 1 μM phenyl arsine oxide (PAO) was used as a positive killing control.

Experiment [2] concerns MCF-7 mammary gland adenocarcinoma cells. Briefly: MTT antiproliferative assay, MCF-7. The note with it: Homo sapiens, MCF7, 48 h, MTT, ± SD. Type of experiment: cell-based. Here is the method:
as §1, §2, §3, §4
In general terms: Tetrazolium dyes change colour on reduction, which living cells bring about.

For experiment [3], the system named is HeLa and MCF-7 cells. Put plainly: MTT antiproliferative activity, statements for HeLa and MCF-7. Type of experiment: cell-based, human. Conditions: HeLa and MCF-7, 48 h. Here is the method:
as §2
The obtained compounds were evaluated for antiproliferative activities using the HeLa cell line as a model for human cervical adenocarcinoma and MCF-7 cells as a model for breast adenocarcinoma. The cells were treated with each compound for 48 h, and cell viability was assessed using the MTT method (Table 5).
as §4

Experiment [4] relates to A549 non-small-cell lung cancer cells. Briefly: MTT antiproliferative assay, A549. Conditions: Homo sapiens, Table 6, 48 h, ± SD, read-out: GI50 in vitro Values, A549. Type of experiment: cell-based. Here is the method: as §2, §3, §4
In experiment [5] the test system is U-87 glioblastoma cells. Briefly: MTT antiproliferative assay, U-87. It counts as cell-based. Conditions: Homo sapiens, Table 6, 48 h, ± SD, read-out: GI50 in vitro Values, U-87. Here is the method:
as §3, §4

Experiment [6] deals with MES-SA/Dx5 uterine sarcoma cells (overexpress p-gp). Briefly: MTT antiproliferative assay, MDR MES-SA/Dx5. It counts as cell-based, human. Conditions: MES-SA/Dx5 vs MES-SA. Here is the method: as §1, §2
The cells of such tumors are referred to as multidrug resistant (MDR). Thus, we assessed the compounds of Formula I for antiproliferative activity in an MDR cancer cell line. This was done using the uterine sarcoma cells, MES-SA/Dx5, which overexpress p-gp. The parental drug-responsive MES-SA cell line was used as control.

Experiment [7] concerns HeLa cells. Put plainly: Flow cytometric cell cycle analysis (Vybrant Orange). It counts as cell-based, human. Conditions: 0.1 μM, 24 h. Here is the method: To assess the effects of the analogues on the cell cycle, cell cycle analysis was performed. 70-80% confluent HeLa cells were trypsinized and seeded at an initial density of 2×10^5 cell per well into 6 well plates in DMEM supplemented with 10% FBS, 100 mg/L penicillin G and 100 mg/L streptomycin. The cells were allowed to adhere overnight and before treatment with compounds of Formula I at concentrations ranging from 0.1 to 10 microM. After 24 hrs, the cells were washed 3× with DMEM, trypsinized, pelleted, and re-suspended in 200 microL of culture medium containing 10 microM (2 microL/mL) vybrant orange dye. The samples in the labeling solution were transferred into Falcon tubes and incubated in a water bath for 30 mins at 37° C. The samples were then analyzed using a Becton Dickinson FACscan flow cytometer with CellQuest software. A 488 nm laser was utilized using parameters that can be found in Appendix B; 10,000 events were collected for analysis. Cells treated with 0.1% DMSO were used as a negative control and cells treated with colchicine were used as a positive control.
In further anticancer evaluation of compounds of Formula I cell cycle analysis was performed using the cell permeable DNA binding dye Vybrant Orange. In a normal population, cells are distributed among the three major phases of the cell cycle, G0/G1 in which there is one set of paired chromosomes per cell (2n), followed by the S or synthesis phase in which DNA is synthesized in preparation for division (there is a variable amount of DNA present during this phase) and finally G2/M phase in which the chromosomes of each cell have now been duplicated (4n). This DNA content can be measured using fluorescent DNA selective probes such as Vybrant Orange that produce signals that are proportional to DNA mass per cell. This dye interacts with double stranded DNA (dsDNA) in living cells and becomes fluorescent upon binding and thus can be used to track DNA content as cells progress through the various phases of the cell cycle using flow cytometry. Cell cycle analysis was performed on HeLa cells using Rig8 at various concentrations above and below the respective GI50. Since colchicine is a known antimitotic drug, it was utilized as a positive control, while HeLa cells treated with 0.1% DMSO were used as a negative control. FIG. 6 illustrates the results of this analysis using Rig 8 on HeLa cells.

[8] abbreviates: Table 5, 48 h, read-out: cell viability GI50, HeLa.
[9] abbreviates: Table 5, read-out: cell viability GI50, MCF-7.
[10] abbreviates: Table 6, 48 h, read-out: GI50 in vitro Values, HeLa.
[11] abbreviates: Table 6, read-out: GI50 in vitro Values, MCF-7.

The structures appear in SMILES notation. Where two headings read alike, the source gives them in different places.

The term GI50 denotes the concentration at which growth is held to half of that of the control. For the compound `CC(C)c1nc(=O)c2c(-c3ccccc3)c(C(=O)c3ccccc3)[nH]c2[nH]1` [Compound 9], the GI50 is 9100 ± 300 nM in experiment [1] (setting [8]) and 8300 ± 800 nM in experiment [2] (setting [9]). In addition, the “antiproliferative activity (potency in words)” value (shortened to “antiproliferative activity”) in experiment [3] is “double to single digit micromolar”.
For `Cc1nc(=O)c2c(-c3cccc(Br)c3)c(C(=O)c3ccccc3)[nH]c2[nH]1` [Compound 19, 6-Benzoyl-5-(3-bromophenyl)-2-methyl-1H-pyrrolo[2,3-d]pyrimidin-4(7H)-one], the GI50 worked out at 290 ± 10 nM in experiment [1] (setting [10]), 270 ± 30 nM in experiment [2] (setting [11]), 650 ± 190 nM in experiment [4] and 940 ± 120 nM in experiment [5].
On to `CCOc1nc(=O)c2c(-c3ccccc3)c(C(=O)c3ccccc3)[nH]c2[nH]1` [Compound 8], for which the GI50 in experiment [1] (setting [8]) worked out at 11100 ± 400 nM; in experiment [2] (setting [9]) it was 10400 ± 800 nM. Also, the “antiproliferative activity” value in experiment [3] is recorded as “double to single digit micromolar”.
For the compound `Cc1nc(=O)c2c(-c3cccc(F)c3)c(C(=O)c3ccccc3)[nH]c2[nH]1` [Compound 20, 6-Benzoyl-5-(3-fluorophenyl)-2-methyl-1H-pyrrolo[2,3-d]pyrimidin-4(7H)-one], the GI50 in experiment [1] (setting [10]) turned out to be 290 ± 30 nM; in experiment [2] (setting [11]), 360 ± 20 nM; in experiment [4], 1000 ± 900 nM; in experiment [5], 1700 ± 100 nM.
With `C#CCCCc1nc(=O)c2c(-c3ccccc3)c(C(=O)c3ccccc3)[nH]c2[nH]1` [Compound 17, 6-Benzoyl-2-(pent-4-ynyl)-5-phenyl-1H-pyrrolo[2,3-d]pyrimidin-4(7H)-one], the GI50 in experiment [2] (setting [9]) stood at 45 ± 1 nM. Also, in experiment [3], the “antiproliferative activity” value was “nanomolar”.
Turning to `Cc1nc(=O)c2c(-c3cc(Br)cc(Br)c3)c(C(=O)c3ccccc3)[nH]c2[nH]1` [Compound 23, 6-Benzoyl-5-(3,5-dibromophenyl)-2-methyl-1H-pyrrolo[2,3-d]pyrimidin-4(7H)-one], the GI50 amounted to 290 ± 10 nM in experiment [1] (setting [10]), 270 ± 10 nM in experiment [2] (setting [11]), 380 ± 80 nM in experiment [4] and 720 ± 60 nM in experiment [5].
As for `CC(=O)O[C@H]1C(=O)[C@@]2(C)[C@H]([C@H](OC(=O)c3ccccc3)[C@]3(O)C[C@H](OC(=O)[C@H](O)[C@@H](NC(=O)c4ccccc4)c4ccccc4)C(C)=C1C3(C)C)[C@]1(OC(C)=O)CO[C@@H]1C[C@@H]2O` [Taxol, reference compound], the “times less potent against the MDR cells compared with the parental MES-SA cells” value in experiment [6] was “ca. 1000 times”.
Consider `O=C(c1ccccc1)c1[nH]c2[nH]c(-c3ccco3)nc(=O)c2c1-c1ccccc1` [Compound 6], for which the GI50 in experiment [1] (setting [8]) is 18400 ± 1800 nM; in experiment [2] (setting [9]) it was 23100 ± 500 nM. Also, the “antiproliferative activity” value in experiment [3] is “double to single digit micromolar”.
For `O=C(c1ccccc1)c1[nH]c2[nH]c(-c3ccccn3)nc(=O)c2c1-c1ccccc1` [Compound 5], in that order: 2700 ± 200 nM, 2500 ± 300 nM and “double to single digit micromolar”.
`Cc1nc(=O)c2c(-c3cccc(Cl)c3)c(C(=O)c3ccccc3)[nH]c2[nH]1` [Compound 18, 6-Benzoyl-5-(3-chlorophenyl)-2-methyl-1H-pyrrolo[2,3-d]pyrimidin-4(7H)-one]: the GI50 stood at 270 ± 10 nM in experiment [1] (setting [10]), 230 nM in experiment [2] (setting [11]), 600 ± 230 nM in experiment [4] and 900 ± 160 nM in experiment [5].
For `COc1cc2c(c(OC)c1OC)-c1ccc(OC)c(=O)cc1[C@@H](NC(C)=O)CC2` [Colchicine, reference compound], in experiment [7], the “% Relative DNA Content, G0/G1” value is on record as 28.7 ± 1.2%; the “% Relative DNA Content, G2/M” value stood at 53.6 ± 1.3%; the “% Relative DNA Content, S” value was 15.7 ± 1.9%.
Regarding `CC[C@]1(O)C[C@@H]2CN(CCc3c([nH]c4ccccc34)[C@@](C(=O)OC)(c3cc4c(cc3OC)N(C)[C@H]3[C@@](O)(C(=O)OC)[C@H](OC(C)=O)[C@]5(CC)C=CCN6CC[C@]43[C@@H]65)C2)C1` [Vinblastine, reference compound], in experiment [6], the “times less potent against the MDR cells compared with the parental MES-SA cells” value is “ca. 1000 times”.
Regarding `Cc1nc(=O)c2c(-c3ccccc3)c(C(=O)c3ccccc3)[nH]c2[nH]1` [Compound 13, 6-Benzoyl-2-methyl-5-phenyl-1H-pyrrolo[2,3-d]pyrimidin-4(7H)-one], the GI50 in experiment [1] (setting [8]) is 29 ± 1 nM; in experiment [1] (setting [10]), 29 ± 1 nM; in experiment [2] (setting [9]), 35 ± 3 nM; in experiment [2] (setting [11]), 35 ± 3 nM; in experiment [4], 250 ± 10 nM; in experiment [5] it was 77 ± 2 nM. The “antiproliferative activity” value in experiment [3] is recorded as “nanomolar”.
